Laboratory results taken from PMC10942122 (Science Advances, 2024).
Values joined by “and” are separate entries in the source; they are usually repeats but may differ in a detail not shown here. Equal values may be shown once.

Tests used:
Mtb H37Rv WT [1] = settings: cited from earlier work
PptT [2] = biological target: T1, PptT (Mycobacterium tuberculosis, UniProt O33336); test: FP-based PptT enzyme assay; format: biochemical
T1 sequence (O33336 1-227): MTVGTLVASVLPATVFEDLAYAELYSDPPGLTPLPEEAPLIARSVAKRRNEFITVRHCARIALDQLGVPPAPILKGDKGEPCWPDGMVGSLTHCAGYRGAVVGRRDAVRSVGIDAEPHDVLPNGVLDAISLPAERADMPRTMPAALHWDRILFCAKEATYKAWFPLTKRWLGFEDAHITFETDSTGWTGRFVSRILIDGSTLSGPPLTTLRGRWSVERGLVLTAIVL

PptT [3] = biological target: T1, PptT; test: BpsA assay of PptT activity with native CoA; format: biochemical
Mtb H37Rv WT [4] = format: cell-based, Mycobacterium tuberculosis
[5] = test system: Mtb pptT cKD -ATc (PptT depleted); format: cell-based, Mycobacterium tuberculosis; settings: PptT depleted by withholding ATc
Mtb pptT cKD +ATc = test: microbe, parasite or virus in culture; format: cell-based; settings: Mycobacterium tuberculosis, read-out: MIC90 PptT KD +ATc
Mtb pptH KO = test: Minimal inhibitory concentration determination, pptH KO; format: cell-based; settings: Mycobacterium tuberculosis, read-out: MIC90 ΔPptH
Mtb DHFR = biological target: T2, Mtb DHFR (Mycobacterium tuberculosis, UniProt P9WNX1); test: Dihydrofolate reductase; format: biochemical
T2 sequence (P9WNX1 1-161): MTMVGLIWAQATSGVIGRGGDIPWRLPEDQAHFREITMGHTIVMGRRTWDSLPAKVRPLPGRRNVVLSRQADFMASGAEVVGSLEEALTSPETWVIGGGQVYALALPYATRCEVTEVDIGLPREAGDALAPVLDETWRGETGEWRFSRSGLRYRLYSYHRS

PptT [6] = biological target: T1, PptT; test: Differential scanning fluorimetry thermal shift assay; format: binding; settings: for ΔTm of CoA-preincubated PptT: 50 μM Ralt-1, Hepes buffer without arginine/glutamate
CoA-saturated PptT = biological target: T3, CoA-saturated PptT (Mycobacterium tuberculosis, UniProt O33336); test: biochemical; format: binding
T3 sequence (O33336 1-227): T1 sequence (O33336 1-227)

PptT [7] = biological target: T1, PptT; test: Kinetic mechanism assay for N-ACP PKS13 substrate; format: biochemical
PptT [8] = biological target: T1, PptT; test: Preincubation and rapid dilution assay; format: biochemical; settings: 10 μM each preincubated, 500-fold dilution
Mtb H37Rv = settings: 10 μM, 24 hours, Mtb on filters

Compound | MIC90 against Mtb (Mtb H37Rv WT [1]) [µM] | maximum inhibition (PptT [2]; FP assay, BDP-CoA, normalized) [%] | IC50 (PptT [2]; IC50 PptT, FP assay at 100 nM PptT enzyme concentration) | IC50 (PptT [2]; IC50 PptT, FP assay, fresh/resupplied powder or purity-checked sample) [nM] | IC50 (PptT [2]; IC50 against rPptT) [nM] | Hill slope (h) (PptT [2]; concentration-response curve, FP assay) | IC50 (PptT [3]) [nM] | MIC90 H37Rv (Mtb H37Rv WT [4]) [µM] | whole-cell activity / target profile against Mtb (in words) (Mtb H37Rv WT [4]) | MIC90 PptT KD -ATc [5] [nM] | MIC (Mtb pptT cKD +ATc) [µM] | MIC (Mtb pptH KO) [µM] | IC50 (Mtb DHFR) [nM] | ΔTm of CoA-preincubated PptT (PptT [6]; 1 mM CoA) [°C] | ΔTm of CoA-preincubated PptT (PptT [6]; 2 mM CoA) [°C] | gain in melting temperature (Tm) of PptT (PptT [6]; 1:10 molar ratio of protein to Ralt-1) [°C] | Kd (CoA-saturated PptT) [nM] | mode of inhibition with respect to the ACP substrate (PptT [7]) | reversibility of binding to PptT (PptT [8]) | % Uptake from media (Mtb H37Rv) [%]
CN(Cc1cnc2nc(N)nc(N)c2n1)c1ccc(C(=O)N[C@@H](CCC(=O)O)C(=O)O)cc1 [Methotrexate] | > 100000 |  |  |  |  |  |  |  |  |  |  |  |  |  |  |  |  |  |  | 
Cc1nc2ccc(CN(C)c3ccc(C(=O)N[C@@H](CCC(=O)O)C(=O)O)s3)cc2c(=O)[nH]1 [Ralt-1, Raltitrexed] |  | ≥ 100 | 70 nM and 65 nM | ~50 | 730 | 1.5 | 250 | >100 | no activity | >100000 | > 100 | > 100 | 8500 | 4 | 3 | 15 | 290 ± 29 | noncompetitive mode of inhibition | readily reversible | 1.2 ± 0.1
